Paper PMC6966871 (Journal of Hematology & Oncology, 2020)
Like-named read-outs stand apart in the source and are kept apart here.

What was measured:
DDR2[h] = system: DDR2[h]; design: method as in unpublished data; settings: 0.2 μM in vitro; one range for all five kinases; ref unpublished data; cited from earlier work
AXL [h] = system: AXL [h]; design: method as in unpublished data; settings: 0.2 μM in vitro; one range for all five kinases; ref unpublished data; cited from earlier work
VEGFR = system: VEGFR; design: method as in unpublished data; settings: preclinical; ref unpublished data; read-out: IC50 against VEGFR; cited from earlier work
EBC-1 cell line = settings: read-out: IC50 against the growth of lung cancer EBC-1 cell line; cited from earlier work
AXL kinase = settings: read-out: IC50 against AXL kinase; cited from earlier work
[1] = Continuous dose (QD) pharmacokinetics (cycle 1, day 28) in patients; type: in vivo, human (Chinese patients); settings: continuous QD dosing, 100 mg to 800 mg
Description: (§1) For the single-dose PK test in the cycle 0, serial peripheral blood samples were collected at pre-dose and at 0.5, 1, 2, 3, 4, 6, 8, 12, 16, 24, 48, 72, and 144 h post-dose. For the continuous dose PK test in the cycle 1, serial peripheral blood samples were collected at pre-dose on days 8, 15, 22, and 28, and at 0.5, 1, 2, 3, 4, 5, 6, 8, 12, 16, 24, 48, and 72 h post-dose on day 28. All serial peripheral blood samples were collected in heparin sodium anticoagulation tubes and centrifuged at 1900g for 10 min before storage at − 80 °C until analysis.

phosphorylation of c-MET = settings: patient-derived xenograft tumors and MET-amplified cell lines, dose-dependent; cited from earlier work
[2] = system: lung adenocarcinoma patient-derived xenograft (PDX); settings: with overexpression of c-MET; ref our preclinical study; cited from earlier work
Ron [h] = system: Ron [h]; design: method as in unpublished data; settings: 0.2 μM in vitro; one range for all five kinases; ref unpublished data; cited from earlier work
[3] = target: wild-type c-Met tyrosine kinase; settings: enzymatic assay; read-out: IC50 against wild-type c-Met tyrosine kinase; cited from earlier work
KDR [h] = system: KDR [h]; design: method as in unpublished data; settings: 0.2 μM in vitro; one range for all five kinases; ref unpublished data; cited from earlier work
c-MET [h] = system: c-MET [h]; design: method as in unpublished data; settings: 0.2 μM in vitro; one range for all five kinases; ref unpublished data; cited from earlier work
[4] = system: advanced non-small cell lung cancer; assay: Tumor response assessed by investigators per RECIST v1.1; type: in vivo, human (Chinese patients); settings: for Partial remission (PR) / Progressive disease (PD): number of patients (%)
[5] = design: species or system human (Chinese patients); settings: human, in vivo
Description: as §1

METex14-altered NSCLC = system: METex14-altered NSCLC; design: method as in doi:10.1200/JCO.2016.34.15_suppl.108; settings: METex14-altered NSCLC patients; cited from earlier work
EGFR-mutant NSCLC = system: EGFR-mutant NSCLC; design: method as in PMID 30156984; settings: in combination with gefitinib, EGFR-mutant NSCLC progressed on previous gefitinib; cited from earlier work
[6] = design: method as in PMID 30724423; settings: cited from earlier work
[7] = design: method as in PMID 30718102; settings: cited from earlier work
[8] = 20 patients, AEs reported by > 20% of patients
[9] = safety population N = 20, 100–800 mg qd, number of patients (%)
[10] = 100 mg/qd group (printed 1 0 mg/qd), n = 4

SMILES: O=C(Nc1ccc(Oc2ccnc3c2CCN3)c(F)c1)c1c[nH]cc(-c2ccc(F)cc2)c1=O
- inhibition of DDR2[h] (DDR2[h]): 88–100%
- inhibition of AXL [h] (AXL [h]): 88–100%
- IC50 (VEGFR): 0.03 µM
- IC50 (EBC-1 cell line): 0.12 µM
- IC50 (AXL kinase): 0.009 µM
- time after which steady-state concentration was reached [1]: 28 days
- phosphorylation of c-MET and downstream signaling targets (ERK, AKT) (phosphorylation of c-MET): inhibits the phosphorylation of c-MET
- tumor growth of lung adenocarcinoma [2]: significantly inhibited tumor growth
- inhibition of Ron [h] (Ron [h]): 88–100%
- IC50 [3]: 0.006 µM
- inhibition of KDR [h] (KDR [h]): 88–100%
- inhibition of c-MET [h] (c-MET [h]): 88–100%
- AEs (any grades) leading to dose adjustment (600 mg/qd group): one patient
- AEs (any grades) leading to dose discontinuation (600 mg/qd group n = 2, 800 mg/qd group n = 2): four patients
- TRAE of grade 3 or higher: hypertension (20 patients): 15%
- TRAE of grade 3 or higher: laryngeal pain (20 patients): 5%
- TRAE of grade 3 or higher: pulmonary embolism (20 patients): 5%
- TRAE: constipation (20 patients): 30%
- TRAE: dysgeusia (20 patients): 40%
- TRAE: increased ALT / ALT elevation (20 patients): 40%
- gastrointestinal symptoms such as vomiting and diarrhea, frequency reported (20 patients): ≤ 10%
- patients experiencing grade 3 AEs (20 patients): 45%
- rate of dose reduction due to AEs (20 patients): 5%
- patients with TRAEs of grade 3 or higher during treatment (20 patients (300 mg/qd n = 1; 600 mg/qd n = 2; 800 mg/qd n = 1)): 20%
- patients with treatment-related AEs (20 patients, 100–800 mg qd): 85%
- TRAE: palmar-plantar erythrodysesthesia syndrome (20 patients, abstract): 15%
- TRAE: hypertension (20 patients, any grade): 25%
- AE (any cause): constipation [8]: 40%
- AE (any cause): dysgeusia [8]: 40%
- AE (any cause): hypertension [8]: 25%
- AE (any cause): increased alanine transaminase (ALT) [8]: 40%
- AE (any cause): increased conjugated bilirubin [8]: 25%
- AE (any cause): increased hemobilirubin [8]: 25%
- AE (any cause): nausea [8]: 25%
- dose-limiting toxicity (DLT) (doses up to 800 mg once daily): No dose-limiting toxicity (DLT) was observed
- maximum tolerated dose (MTD) (maximum dose investigated 800 mg QD): not reached
- serious adverse events (pulmonary embolism, 600 mg/qd group, probably related to study treatment): One serious adverse event
- Treatment-related adverse event: Constipation, Grade ≥ 3 [9]: 0
- Treatment-related adverse event: Constipation, any grade [9]: 6 (30%)
- Treatment-related adverse event: Dysgeusia, Grade ≥ 3 [9]: 0
- Treatment-related adverse event: Dysgeusia, any grade [9]: 8 (40%)
- Treatment-related adverse event: Hypertension, Grade ≥ 3 [9]: 3 (15%)
- Treatment-related adverse event: Hypertension, any grade [9]: 5 (25%)
- Treatment-related adverse event: Increase AST, Grade ≥ 3 [9]: 0
- Treatment-related adverse event: Increase AST, any grade [9]: 4 (20%)
- Treatment-related adverse event: Increased ALT, Grade ≥ 3 [9]: 0
- Treatment-related adverse event: Increased ALT, any grade [9]: 8 (40%)
- Treatment-related adverse event: Increased conjugated bilirubin, Grade ≥ 3 [9]: 0
- Treatment-related adverse event: Increased conjugated bilirubin, any grade [9]: 5 (25%)
- Treatment-related adverse event: Increased creatine phosphokinase, Grade ≥ 3 [9]: 0
- Treatment-related adverse event: Increased creatine phosphokinase, any grade [9]: 3 (15%)
- Treatment-related adverse event: Increased gamma-glutamyltransferase, Grade ≥ 3 [9]: 0
- Treatment-related adverse event: Increased gamma-glutamyltransferase, any grade [9]: 4 (20%)
- Treatment-related adverse event: Increased hemobilirubin, Grade ≥ 3 [9]: 0
- Treatment-related adverse event: Increased hemobilirubin, any grade [9]: 5 (25%)
- Treatment-related adverse event: Increased unconjugated bilirubin, Grade ≥ 3 [9]: 0
- Treatment-related adverse event: Increased unconjugated bilirubin, any grade [9]: 3 (15%)
- Treatment-related adverse event: Palmar-plantar erythrodysesthesia, Grade ≥ 3 [9]: 0
- Treatment-related adverse event: Palmar-plantar erythrodysesthesia, any grade [9]: 3 (15%)
- Treatment-related adverse event: Papulosis, Grade ≥ 3 [9]: 0
- Treatment-related adverse event: Papulosis, any grade [9]: 2 (10%)
- patients with drug discontinuation due to treatment-related AE (two patients in 600 mg/qd group and one in 800 mg/qd group): 15%
- Disease control rate, % (95%CI) [4, 10]: 0 (NA, NA) %
- Objective remission rate, % (95%CI) [4, 10]: 0 (NA, NA) %
- Partial remission (PR) [4, 10]: 0
- Progressive disease (PD) [4, 10]: 3 (100.0%)
- Disease control rate, % (95%CI) ([4]; 200 mg/qd group, n = 3): 66.7 (9.43, 99.16) %
- Objective remission rate, % (95%CI) ([4]; 200 mg/qd group, n = 3): 0 (NA, NA) %
- Partial remission (PR) ([4]; 200 mg/qd group, n = 3): 0
- Progressive disease (PD) ([4]; 200 mg/qd group, n = 3): 1 (33.3%)
- Disease control rate, % (95%CI) ([4]; 300 mg/qd group, n = 3): 66.7 (9.43, 99.16) %
- Objective remission rate, % (95%CI) ([4]; 300 mg/qd group, n = 3): 0 (NA, NA) %
- Partial remission (PR) ([4]; 300 mg/qd group, n = 3): 0
- Progressive disease (PD) ([4]; 300 mg/qd group, n = 3): 1 (33.3%)
- Disease control rate, % (95%CI) ([4]; 450 mg/qd group, n = 4): 50.0 (6.76, 93.24) %
- Objective remission rate, % (95%CI) ([4]; 450 mg/qd group, n = 4): 0 (NA, NA) %
- Partial remission (PR) ([4]; 450 mg/qd group, n = 4): 0
- Progressive disease (PD) ([4]; 450 mg/qd group, n = 4): 2 (50.0%)
- Disease control rate, % (95%CI) ([4]; 600 mg/qd group, n = 3): 66.7 (9.43, 99.16) %
- Objective remission rate, % (95%CI) ([4]; 600 mg/qd group, n = 3): 0 (NA, NA) %
- Partial remission (PR) ([4]; 600 mg/qd group, n = 3): 0
- Progressive disease (PD) ([4]; 600 mg/qd group, n = 3): 1 (33.3%)
- Disease control rate, % (95%CI) ([4]; 800 mg/qd group, n = 3): 100.0(29.24,100.0) %
- Objective remission rate, % (95%CI) ([4]; 800 mg/qd group, n = 3): 33.3 (0.84, 90.57) %
- Partial remission (PR) ([4]; 800 mg/qd group, n = 3): 1 (33.3%)
- Progressive disease (PD) ([4]; 800 mg/qd group, n = 3): 0
- patients with tumor burden reduced from baseline ([4]; 19 evaluable patients): 53%
- ORR ([4]; 19 evaluable patients, text (95% CI 0.1–26%)): 5%
- DCR ([4]; 19 evaluable patients, text (95% CI 34–80%)): 58%
- Disease control rate, % (95%CI) ([4]; Total, N = 20 (19 evaluable)): 57.9 (33.50, 79.75) %
- Objective remission rate, % (95%CI) ([4]; Total, N = 20 (19 evaluable)): 5.3 (0.13, 26.03) %
- Partial remission (PR) ([4]; Total, N = 20 (19 evaluable)): 1 (5.3%)
- Progressive disease (PD) ([4]; Total, N = 20 (19 evaluable)): 8 (42.1%)
- number of patients with a partial response ([4]; among 19 evaluable patients): 1
- number of patients with stable disease ([4]; among 19 evaluable patients): 10 patients
- DCR ([4]; patients (n = 11) with MET gene amplification or c-MET overexpression, exploratory): 82%
- ORR ([4]; patients without MET dysregulation (eight patients), exploratory): 0%
- dose at which exposure (AUC and Cmax) reached saturation [5]: 600 mg
- dose proportionality of maximal plasma concentration (Cmax) [5]: increased obviously less than dose proportionally
- dose proportionality of plasma exposure (AUC0–last) [5]: increased slightly less than dose proportionally
- mean t1/2 (half-life) [5]: 7.9 to 37.3 h

SMILES: C[C@@H](Oc1cc(-c2cnn(C3CCNCC3)c2)cnc1N)c1c(Cl)ccc(F)c1Cl [Crizotinib]
- unconfirmed response rate (METex14-altered NSCLC): up to 44%

SMILES: CNC(=O)c1ccc(-c2cnc3ncc(Cc4ccc5ncccc5c4)n3n2)cc1F [capmatinib]
- overall ORR (EGFR-mutant NSCLC): 27%
- patients with one or more dose interruptions ([6]; 21 patients): 47.7%
- AE: decreased appetite [6]: 41%
- AE: diarrhea [6]: 25%
- AE: increased blood creatinine [6]: 52%
- AE: nausea [6]: 48
- AE: vomiting [6]: 39%
- AEs leading to discontinuation [6]: 9%
- adverse events leading to dose adjustment and/or interruption [6]: 59%
- patients with dose interruption only once ([6]; nine patients): 20.5%

SMILES: COc1cc2nccc(Oc3ccc(NC(=O)C4(C(=O)Nc5ccc(F)cc5)CC4)cc3)c2cc1OC [cabozantinib]
- rate of discontinuation due to an AE ([7]; Japanese NSCLC patients, phase 1): 10%
- AE: diarrhea [7]: 78%
- AE: hypertension [7]: 87%
- AE: increased ALT [7]: 95%
- AE: increased AST [7]: 95%
- AE: palmar-plantar erythrodysesthesia [7]: 100%
- patients who experienced ≥ grade 3 AEs [7]: 70%
- patients with dose reduction ([7]; dose-escalation cohorts, about): 30–40%
- patients with discontinuation ([7]; dose-escalation cohorts): 13%
